# Calls of active or inactive are those of the source.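 The calls were made as follows: active = AC50 no more than tenfold above the top dose tested, or full inhibition at every dose with a flat fit (cut at about 19 µM in these data); inconclusive = flat curve fit with inhibition between 30% and 70%, or poor fit; inactive = AC50 more than tenfold above the top dose tested.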
# System: HMLE_sh_eGFP viability, CellTiter-Glo luminescence, 72 h
# Assay: cytotoxicity in HMLE control line with eGFP shRNA, dose response, counter-screen for HMLE_sh_ECad selective toxicity project, cell-based, HMLE_sh_eGFP, luminescence (AID 463074);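 also: counterscreen control line to flag general toxicity for the HMLE_sh_ECad screen; potency for loss of viability as luminescence drops below DMSO wells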
row,Structure (SMILES),AC50
1,C/C(=N\Nc1cc(N2CCCCC2)nc(C)n1)c1ccc(Br)cc1,5.82 µM
2,Cc1cccc(NC(=S)N/N=C/c2ccc([N+](=O)[O-])s2)c1,6.78 µM
3,CCn1c(C)nc2cc(C(=O)N/N=C/c3cccc(OC)c3O)ccc21,6.95 µM
4,CC(C)C[C@H](CO)N(Cc1ccccc1)S(=O)(=O)N(Cc1ccccc1)[C@@H](CO)CC(C)C,3.49 µM
5,O=C(COc1ccccc1-c1ccccc1)N/N=C/c1ccc2ccccc2c1,3.67 µM
6,CCOC(=O)c1c(C)nc2c(c1-c1ccc(Cl)cc1)C(=O)CC(C)(C)C2,18.1 µM
7,CCC1CSC(Nc2ccc(C(=O)/C=C/c3cccc(C)c3)cc2)=N1 (stereo not given),5.56 µM
8,O=C(N/N=C\c1cc(Br)ccc1O)c1ccc(S(=O)(=O)N2CCCCC2)cc1,2.75 µM
9,Fc1cccc(-n2c(-c3cccs3)nc3nc4ccccc4nc32)c1,2.32 µM
10,Oc1ccc(CCNc2ncnc3ccc(Cl)cc23)cc1,7.91 µM
11,O=[N+]([O-])c1cc(S(=O)(=O)C(F)(F)F)ccc1Sc1nc2ccccc2[nH]1,4.46 µM
12,Nc1ccccc1N=Cc1ccc(-c2cccc(Cl)c2)o1,4.22 µM
13,CN1CCN(C2Cc3ccc(F)cc3Sc3cc(F)c(Cl)cc32)CC1 (stereo not given),5.49 µM
14,Cc1ccc(CCC(=O)Nc2ncc(Cc3cc(Cl)ccc3Cl)s2)o1,13.6 µM
15,CCN(CC)c1ccc(/C=N/NC(=O)CCC(=O)NCc2ccccc2)c(O)c1,8.23 µM
16,c1ccc(CNc2nc(N3CCN(Cc4ccccc4)CC3)nc3ccccc23)cc1,3.91 µM
17,O=C(Nc1ccc(N2CCN(Cc3ccccc3F)CC2)cc1)c1ccc([N+](=O)[O-])o1,1.94 µM
18,Cc1c(CCOC(=O)C2C3CC4CC(C3)CC2C4)sc[n+]1CC(=O)c1ccc(Br)cc1 (stereo not given),2.44 µM
19,Cc1cc(C)c(C(CC(=O)c2cccs2)C(C#N)C#N)c(C)c1 (stereo not given),5.9 µM
20,Cc1cc(-c2ccccc2)nc(N/N=C/c2ccc(O)cc2O)n1,7.96 µM
21,CCCc1cc(SCC(=O)Nc2c(C)n(C)n(-c3ccccc3)c2=O)n2c(nc3ccccc32)c1C#N,> 19.5 µM (inactive)
22,CC1=C(C(=O)OC2CCCC2)C(c2coc3ccccc3c2=O)C2=C(CC(C)(C)CC2=O)N1 (stereo not given),> 19.5 µM (inactive)
23,O=S(=O)(Nc1ccc(O)c2ccccc12)c1ccc(OC(F)(F)F)cc1,12.5 µM
24,C/C(=N\NC(N)=S)c1cc(-c2ccccc2)c(-c2ccccc2)s1,3.94 µM
25,COc1ccccc1C1=NOC(COc2ccc3c(C)cc(=O)oc3c2)C1 (stereo not given),0.288 µM
26,O=C(Nc1cccc(Cl)c1)Nc1sccc1-c1nc2ccccc2s1,> 19.5 µM (inactive)
27,CCOC(=O)C(=O)NNc1ccc(F)cc1,1.45 µM

row,Structure (SMILES),AC50
1,CC(C)(C)OC(=O)NCc1ccc(NC(=O)c2nc[nH]c2C(=O)NCCCNC(=O)c2[nH]cnc2C(=O)Nc2ccc(CNC(=O)OC(C)(C)C)cc2)cc1,1.92 µM
2,CCc1ccc(NC(=O)C(CC)Sc2nc3cc4c(cc3c(=O)n2Cc2ccco2)OCO4)cc1 (stereo not given),13.1 µM
3,CCC1=NN2C(=N)/C(=C/c3c(C)nn(-c4ccccc4)c3Cl)C(=O)N=C2S1,> 19.5 µM (inactive)
4,Cc1ccc([N+](=O)[O-])cc1-c1ccc(/C=C(\C#N)c2[nH]nc(N)c2C#N)o1,4.84 µM
5,COc1ccc(CNCCC(c2ccc(OC(C)C)cc2)c2ccccc2OC)cc1 (stereo not given),4.71 µM
6,O=C(NNC(=O)c1cc(Cl)ccc1O)c1ccc(NS(=O)(=O)c2cccs2)cc1,8.13 µM
7,O=C(Nc1ccc(F)cc1)c1nc(S(=O)(=O)Cc2ccccc2)ncc1Cl,7.15 µM
8,O=[N+]([O-])/C=C/c1cn(Cc2ccc(Cl)cc2)c2ccccc12,2.2 µM
9,NCCNc1ccc(C(=O)N2c3ccccc3Sc3ccccc32)cc1[N+](=O)[O-],8.03 µM
10,O=C(Nc1cccc(Cl)c1)Nc1cc(S(=O)(=O)N2CCCCC2)ccc1Cl,2.82 µM
11,O=[N+]([O-])c1cccnc1N1CCC(c2cc(-c3cccc(C(F)(F)F)c3)n[nH]2)CC1,3.56 µM
12,Fc1ccccc1COc1ccc(-c2nnn(Cc3ccccc3F)n2)cc1,4.81 µM
13,Clc1ccc2c(N/N=C/c3ccc(Br)cc3)ccnc2c1,7.56 µM
14,Cc1ccc(/C=C\c2nccc3c2[nH]c2ccccc23)cc1,13.2 µM
15,COc1ccc(CCn2c(C3CCCCC3)nc3c(c(=O)c4ccccc4n3C)c2=O)cc1,5.17 µM
16,CCNc1nc(NCC)n2c(SC(C(=O)Nc3cc(Cl)cc(Cl)c3)c3ccccc3)nnc2n1 (stereo not given),3.52 µM
17,S=c1[nH]nc(-c2cc(-c3ccccc3)n[nH]2)n1/N=C/C(Br)=C/c1ccccc1,1.2 µM
18,COc1ccc(NC(=O)c2nc[nH]c2C(=O)N[C@@H](CC(C)C)C(=O)OC(C)(C)C)cc1,8.85 µM
19,CCC/C=C(\CCC)C(NS(=O)(=O)c1ccc(C(F)(F)F)cc1)c1ccccc1 (stereo not given),3.93 µM
20,CCCCCc1cc(=O)oc2c(C(CCN3CCCC(C)C3)c3cc(OC)c(OC)c(OC)c3)c(OC)cc(OC)c12 (stereo not given),7.18 µM
21,O=C(Nc1nc(-c2cc(Cl)sc2Cl)cs1)c1cccs1,2.42 µM
22,CCCCCCSc1cc(-c2nc3ccc(C)cn3c2NCCCC)ccc1OC,6.6 µM
23,O=S(=O)(c1ccc(Cl)cc1)N1CCN(Cc2ccc(O)c3ncccc23)CC1,6.21 µM
24,CC(=O)N1c2ccc(Cl)cc2C2C=CCC2C1c1cccc2ccccc12 (stereo not given),5.36 µM
25,CSc1ccccc1C(=O)Nc1cc(C)ccc1C,> 19.5 µM (inactive)
26,COC(=O)C1=C(c2cccc(C#N)c2)C[C@@H]2CC[C@H]1N2C(=O)NC1Cc2ccccc2C1,> 19.5 µM (inactive)
27,COc1cccc(/C=C/c2ccc3ccccc3n2)c1OC(C)=O,11.7 µM

row,Structure (SMILES),AC50
1,CCOC(=O)c1c(NC(=O)CSc2nc3ccc(C)cc3[nH]2)sc2c1CC(C)(C)NC2(C)C,6.64 µM
2,Cc1cc(-c2ccccc2)n(-c2cc(N/N=C/c3ccccc3O)ncn2)n1,0.669 µM
3,CCOC(=O)c1c2ccc(OCC(=O)N/N=C/c3ccc(C)cc3)cc2n2ccccc12,11.8 µM
4,Oc1ccc(-c2cc(-c3ccc(O)cc3)nc(-c3ccccc3)n2)cc1,3.77 µM
5,CC(C)C[C@H](N)c1nnc(S(=O)(=O)Cc2ccc(F)cc2)o1,8.54 µM
6,c1cc2cc(-c3c(-c4ccc5c(c4)OCO5)noc3-c3ccsc3)ccc2[nH]1,4.19 µM
7,Cc1cc(C)cc(NC(=O)Nc2ccc(-n3ccc(C(F)(F)F)n3)cc2)c1,4.95 µM
8,C/C(=N\NC(=O)c1cccc(Cl)c1)C1C(=O)c2ccccc2C1=O,20.1 µM
9,CNC(=O)C1C(=S)NC(N)=C(C#N)C1c1ccccc1 (stereo not given),> 19.5 µM (inactive)
10,CCOC(=O)/C(=N/Nc1ccccc1)c1csc(Nc2ccccc2)n1,3.69 µM
11,Cc1ccc(S(=O)(=O)Nc2ccc(-c3csc(-c4ccccc4)n3)cc2)cc1,6.85 µM
12,Cc1ccccc1N=C1SC(CC(=O)Nc2ccc3ccccc3c2)C(=O)N1Cc1ccccn1 (stereo not given),6.02 µM
13,CN(C)CCn1c2ccccc2c2nc3ccc([N+](=O)[O-])cc3cc21,15.6 µM
14,CCc1cc(-c2n[nH]c(C)c2-c2ccccc2Cl)c(O)cc1OC,3.77 µM
15,Cc1ccc(C(=O)N2N=C(c3ccc(Br)cc3)CC2c2ccccc2O)cc1 (stereo not given),3.54 µM
16,c1ccc(-c2sc3ccccc3c2-c2ccc(OCCN3CCCC3)cc2)cc1,2.37 µM
17,Clc1ccccc1Cn1c(/C=C/c2ccco2)nc2ccccc21,2.19 µM
18,N#CCSc1nc2c(c(=O)n1Cc1ccco1)C1(CCCC1)Cc1ccccc1-2,0.468 µM
19,CC(C)c1ccc(/C=C/C(=O)NC2=NCCS2)cc1,> 19.5 µM (inactive)
20,COc1ccccc1Nc1ccc(NC(=O)c2cccc([N+](=O)[O-])c2C)cc1,3.82 µM
21,Cc1nc(N2CCCCC2)c2c(C)c(C(=O)Nc3ccccc3C(F)(F)F)sc2n1,1.85 µM
22,Cc1[nH]nc2c1C(c1ccc(-c3ccc(Cl)cc3)o1)C(C#N)=C(N)O2 (stereo not given),7.25 µM
23,Cc1nc(NCc2ccco2)c2c(C)c(C)sc2n1,5.22 µM
24,Cc1cccc(NC(=O)c2cc(-c3cc(C)cc(C)c3O)n[nH]2)c1,4.2 µM
25,OC1CCN(c2cc(-c3ccccc3)nc3cc(-c4ccc(F)cc4)nn23)CC1,7.31 µM
26,OCCCn1c(CCNc2nc(-c3ccc(Cl)cc3)cs2)nc2cc(C(F)(F)F)ccc21,11.3 µM
27,CN(C)CCNC=C(C(=O)Nc1ccc(Cl)cc1Cl)C(=O)Nc1ccc(Cl)cc1Cl,9.23 µM

row,Structure (SMILES),AC50
1,O=C(/C(=C/c1cccc(Cl)c1)c1nc2ccccc2[nH]1)c1ccccc1,3.35 µM
2,O=C(/C=C/c1c[nH]c2ccccc12)c1cccc2ccccc12,5.3 µM
3,COc1ccc(C(=O)NC(=S)Nc2ccccc2N2CCCCC2)cc1[N+](=O)[O-],0.574 µM
4,Cc1onc(-c2c(Cl)cccc2Cl)c1C(=O)N/N=C(\N)COc1ccc(Cl)cc1,3.8 µM
5,CC1CCN(c2nc(-c3cccnc3)nc3scc(-c4ccccc4)c23)CC1,1.48 µM
6,Cc1ccc(Sc2c([N+](=O)[O-])c(=O)n(C)c3ccccc23)cc1,7.05 µM
7,O=[N+]([O-])c1ccc(Cl)c([N+](=O)[O-])c1,5.62 µM
8,Cc1cc(C)c(O)c(-c2n[nH]c3c2C(c2cccc(O)c2)N(Cc2ccco2)C3=O)c1 (stereo not given),6.73 µM
9,O=C(NCc1ccc(F)cc1)C(=O)Nc1nc(C23CC4CC(CC(C4)C2)C3)cs1,2.13 µM
10,COc1ccc2c(c1)CCc1c(C(=O)N3CC4(C)CC3CC(C)(C)C4)noc1-2 (stereo not given),< 0.16 µM
11,CC(C)C1C(c2ccccc2)N(C)C(c2ccccc2)CC1(O)c1ccccc1 (stereo not given),3.35 µM
12,COC(=O)c1c(NC(=O)c2ccc(C)c(S(=O)(=O)Nc3ccccc3C)c2)sc2c1CCCC2,1.31 µM
13,COc1ccc(CC2S/C(=N/N=C/c3ccccc3O)NC2=O)cc1 (stereo not given),19.2 µM
14,O=C(/C=C/c1ccc2c(c1)OCO2)NCCSCc1c(Cl)cccc1Cl,2 µM
15,Clc1ccc(CSc2nnnn2-c2ccc3c(c2)OCO3)c(Cl)c1,10.6 µM
16,O=C(Nc1nccs1)c1ccc(COc2ccccc2Cl)o1,10.8 µM
17,CCN(CC)C1CCN(C(=O)c2cc(COc3ccc(F)cc3Cl)on2)C1 (stereo not given),15.4 µM
18,NC(=O)CC(NC(=O)Cc1cccc2ccccc12)c1ccc(N2CCc3ccccc3C2)c([N+](=O)[O-])c1 (stereo not given),17.6 µM
19,Cc1cc(N2CCN(C)CC2)nc2ccc(NC(=S)N3CCN(c4ccc(F)cc4)CC3)cc12,5.94 µM
20,CC1CC/C(=C\c2ccc3c(c2)OCO3)C(=O)/C1=C/c1ccc2c(c1)OCO2 (stereo not given),5.09 µM
21,CCCc1ccc(C(=O)NNc2ccc(F)cc2)cc1,1.99 µM
22,CN(CCO)c1cc(Sc2nc3ccccc3s2)c2nonc2c1[N+](=O)[O-],2.49 µM
23,O=C(NNC1=C(C(=O)C(F)(F)F)CCC1)c1ccc(Br)cc1,3.6 µM
24,Cc1cccc(CNc2ccc(C(CC(N)=O)NC(=O)Cc3cccc4ccccc34)cc2[N+](=O)[O-])c1 (stereo not given),13.7 µM
